The values below come from patent US12516131B2, “Methods for preventing acute kidney injury” (University of Maryland, Baltimore, priority 2018, dated 2026).

Data set [1] concerns renal ischemia/reperfusion (RIR) in Wistar rats. In words: Example 1: plasma creatinine in rats following renal ischemia/reperfusion (45 min bilateral renal pedicle clamping). The class given is in vivo, rat. As to conditions: Ouabain infusion (10 μg/kg/day) / Saline injection; n=9; ±SE. The protocol: FIG. 7. Effect of DIGIFAB on plasma creatinine in rats following renal ischemia/reperfusion (RIR). Normal male Wistar rats were implanted on “Day 0” with a subcutaneous minipump to deliver ouabain (10 μg/kg/day: open symbols) or vehicle (6 μl/day; solid symbols). Beginning on Day 13, half of the ouabain-infused rats and half of the vehicle-infused rats were injected with DigiFab (triangles), and the remainder (circles) were injected with an equal volume of saline: The DigiFab-treated rats received 0.2 ml DigiFab (10 mg/ml) at 15 hr and 6 hr, and 0.1 ml DigiFab 1 hr pre-operatively. […] Plasma creatinine was measured with a commercial creatinine enzymatic assay kit. […] The subsequent decline toward baseline (measured at 72 hrs; i.e., Day 17) was more rapid (i.e., the slope was steeper) in the DigiFab-injected rats than in the saline-injected rats. […]
Male Wistar ICS rats (˜300 g) on normal diet were implanted on “Day 0” with a subcutaneous minipump to deliver ouabain—see FIG. 7—(10 μg/kg/day; open symbols) or vehicle (6 μl/day; solid symbols). […] Plasma creatinine was measured after ultrafiltration with 10K filters using a slightly modified rat creatinine enzymatic assay kit (Crystal Chem, Inc., Elk Grove Village, IL). […] The subsequent decline toward baseline (measured at 72 hrs; i.e., Day 17) was more rapid (i.e., the slope was steeper) in the DigiFab-injected rats than in the saline-injected rats. […]

The conditions of data set [2]: rats, cited from earlier work.
In data set [3] the test system is ischemia-induced renal injury. As to conditions: somewhat similar rat model; cited from earlier work.
A short description of data set [4]: Lability of reconstituted/diluted DIGIFAB (ouabain binding capacity after storage), protection by E-64. As to conditions: E-64 at final concentration 1 μM in diluted DIGIFAB. The class given is physicochemical.
Source text: To maintain the immuno-neutralizing activity of stored dilute DIGIFAB samples, we tested the effect of the irreversible protease (primarily papain) inhibitor, E-64.

The structures appear in SMILES notation. Read-outs that look alike come from different tables or passages of the source.

As for `C[C@@H]1O[C@@H](O[C@H]2C[C@@H](O)[C@]3(CO)[C@H]4[C@H](O)C[C@]5(C)[C@@H](C6=CC(=O)OC6)CC[C@]5(O)[C@@H]4CC[C@]3(O)C2)[C@H](O)[C@H](O)[C@H]1O` [Ouabain], the “Percent Recovery of plasma creatinine toward baseline, 24 to 72 hrs post-op” value in data set [1] turned out to be 38.6±17.5%. Besides, the “steady state plasma level” value is reported as ~1.95 nM in data set [2] (ouabain infused chronically at 3 μg/Kg/24 hr), ~2.2 nM in data set [2] (ouabain infused chronically at 10 μg/Kg/24 hr) and ~4.8 nM in data set [2] (ouabain infused chronically at 30 μg/Kg/24 hr).

As for `C[C@]12CC[C@H](O)C[C@H]1CC[C@@H]1[C@@H]2CC[C@]2(C)[C@@](O)(c3ccoc3)CC[C@]12O` [rostafuroxin], the “effect on ischemia-induced renal injury” value in data set [3] was “attenuated ischemia-induced renal injury”.

As for `CC(C)C[C@H](NC(=O)[C@H]1C[C@@H]1C(=O)O)C(=O)NCCCCNC(=N)N` [E-64, (1S,2S)-2-(((S)-1-((4-guanidinobutyl)amino)-4-methyl-1-oxopentan-2-yl)carbamoyl)cyclopropanecarboxylic acid], the “effect of E-64 on stability of DIGIFAB's ouabain binding capacity” value in data set [4] is “markedly improved the stability”.
